US12509446B2, “FYN and VEGFR2 kinase inhibitors” (ROTTAPHARM BIOTECH S.R.L., priority 2019, dated 2025)

Experiments:
Fyn = Fyn (Homo sapiens (Human), UniProt P06241); experiment: Z′-LYTE in vitro Fyn kinase activity assay; format: biochemical; conditions: ATP 50 μM; read-out: FYN KINASE INHIBITION IC50
How it was run: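 Z′-LYTE FRET format with full-length active Fyn in 50 mM Hepes pH 7.5, 10 mM MgCl2, 1 mM EGTA, 0.01% Brij-35, 1% DMSO final; 60 minutes at 25° C. Percent phosphorylation from 0% and 100% phosphorylation controls; IC50 by non-linear curve fitting of percent inhibition.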

VEGFR2 = VEGFR2 (Homo sapiens (Human), UniProt P35968); experiment: In vitro VEGFR2 kinase activity assay (Eurofins Cerep); format: biochemical; conditions: read-out: VEGFR2 KINASE INHIBITION IC50
Sequence of VEGFR2 (P35968 20-1356): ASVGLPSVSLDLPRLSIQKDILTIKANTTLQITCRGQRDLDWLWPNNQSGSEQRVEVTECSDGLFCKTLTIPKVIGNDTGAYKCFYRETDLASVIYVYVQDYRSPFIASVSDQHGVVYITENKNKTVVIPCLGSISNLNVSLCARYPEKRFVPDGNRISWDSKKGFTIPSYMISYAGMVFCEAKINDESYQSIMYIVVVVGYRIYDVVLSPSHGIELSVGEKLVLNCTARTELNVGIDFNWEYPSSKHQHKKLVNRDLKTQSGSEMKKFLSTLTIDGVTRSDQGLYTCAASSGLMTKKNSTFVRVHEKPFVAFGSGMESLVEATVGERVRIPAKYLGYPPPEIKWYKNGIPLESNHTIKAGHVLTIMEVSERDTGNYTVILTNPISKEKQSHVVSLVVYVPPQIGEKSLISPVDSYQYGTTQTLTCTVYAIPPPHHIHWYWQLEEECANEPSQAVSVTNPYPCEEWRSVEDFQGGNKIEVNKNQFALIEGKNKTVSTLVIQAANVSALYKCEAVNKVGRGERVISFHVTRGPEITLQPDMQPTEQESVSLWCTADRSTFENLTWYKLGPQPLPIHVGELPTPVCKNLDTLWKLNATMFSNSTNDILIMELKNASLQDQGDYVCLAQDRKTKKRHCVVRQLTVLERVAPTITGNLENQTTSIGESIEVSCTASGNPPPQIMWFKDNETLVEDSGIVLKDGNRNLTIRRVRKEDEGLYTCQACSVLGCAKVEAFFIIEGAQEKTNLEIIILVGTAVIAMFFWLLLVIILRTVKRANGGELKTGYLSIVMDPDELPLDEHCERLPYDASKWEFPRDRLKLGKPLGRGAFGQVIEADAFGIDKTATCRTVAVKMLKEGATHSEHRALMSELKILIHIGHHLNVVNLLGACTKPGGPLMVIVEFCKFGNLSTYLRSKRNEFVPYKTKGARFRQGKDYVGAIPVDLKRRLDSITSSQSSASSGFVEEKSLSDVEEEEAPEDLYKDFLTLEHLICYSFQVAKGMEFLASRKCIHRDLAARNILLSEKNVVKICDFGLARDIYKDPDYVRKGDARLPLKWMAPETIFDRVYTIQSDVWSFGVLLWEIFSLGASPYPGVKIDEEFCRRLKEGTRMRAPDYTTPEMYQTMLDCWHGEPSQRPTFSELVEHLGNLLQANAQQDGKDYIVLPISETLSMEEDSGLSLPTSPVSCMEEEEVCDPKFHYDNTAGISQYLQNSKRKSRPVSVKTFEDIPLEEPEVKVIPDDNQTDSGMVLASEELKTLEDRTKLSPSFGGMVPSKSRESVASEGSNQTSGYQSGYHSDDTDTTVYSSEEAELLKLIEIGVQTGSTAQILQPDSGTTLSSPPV
How it was run: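 Contract biochemical kinase assay on human VEGFR2 with inhibitors at 10^−8 to 10^−5 M final (some re-tested from 10^−9 M). Activity expressed as percent of no-compound control; IC50 by non-linear regression of mean replicate inhibition curves.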

NF-kB = experiment: Gene reporter (GR) assay, NF-kB activation after TNFα in JB6 Cl 41-5a (P+) cells; format: cell-based, murine; conditions: Mus musculus, JB6 Cl 41-5a, TNFα 2 ng/ml, non toxic concentrations; read-out: Gene reporter (GR) inhibition IC50
How it was run: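 TNFα (2 ng/ml, 4 h) stimulation followed 1 h compound pre-treatment in NF-kB-luciferase-transfected mouse JB6 (P+) epithelial cells. Reporter luminescence and cell viability were read together, each condition in quadruplicate.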

IL-1β = experiment: Gene expression in rat articular chondrocytes under IL-1β stimulation, IL-1β; format: cell-based; conditions: for IL-1β gene expression, percentage of inhibitory effect at the highest non toxic concentration: 6 h; for IC50: Rattus norvegicus, Chondrocyte, 6 h incubation
Protocol: (§1) For gene expression analysis, 10 days after plating, the medium was changed and substituted with DMEM GlutaMAX I 0.4% to synchronize the cells. The cells were then co-treated in DMEM GlutaMAX I 0.4% with different concentrations of the test compounds and […] at a final concentration of 2 ng/ml for 6 h and 24 h. The test compound concentrations used have been chosen on the basis of the toxicity data.
(§2) At the end of the incubation, the supernatant was discarded, the cell were washed with cold PBS1X and scraped with 200 μl of RNA lysis buffer 1X (Nucleic Acid Purification Lysis Solution, Applied Biosystems).
(§3) Total RNA was purified using ABI Prism™ 6100 Nucleic Acid PrepStation (Applied Biosystems) following manufacturer's instructions.
(§4) Total RNA was retrotranscribed using the High-Capacity cDNA Archive Kit (Applied Biosystems-Thermo Fisher Scientific) following manufacturer's instructions.
(§5) The specific probes and primers for RealTime PCR were from Applied Biosystems (Thermo Fisher Scientific) as Assays-on-Demand™, while the probe and primers for the endogenous control 18S was a PDAR (Pre-Developed TaqMan® Assay Reagents—Applied Biosystems-Thermo Fisher Scientific).
(§6) The assays were designed to amplify target cDNA without amplifying genomic DNA.
(§7) Gene expression analysis for IL-1β, IL-6 and ADAMTS-5 were performed at 6 h incubation, while the gene expression analysis for MMP3, MMP13 and COX2 were performed at 24 h incubation.
(§8) For each compound the maximal concentration tested was dependent on the toxicity results obtained on primary rat chondrocytes.
(§9) The data analysis, with the normalisation on the amplified values for the 18S was done following the specific instruction of Applied Biosystems for the relative quantification of gene expression.

IL-6 = experiment: Gene expression in rat articular chondrocytes under IL-1β stimulation, IL-6; format: cell-based; conditions: for IL-6 gene expression, percentage of inhibitory effect at the highest non toxic concentration: 6 h
Protocol: as §1, §2, §3, §4, §5, §6, §7, §8, §9

COX2 = experiment: Gene expression in rat articular chondrocytes under IL-1β stimulation, COX2; format: cell-based; set-up: key to COX2 gene expression, no effect: ne: no effect
ADAMTS-5 = experiment: Gene expression in rat articular chondrocytes under IL-1β stimulation, ADAMTS-5; format: cell-based; conditions: for IC50: Rattus norvegicus, Chondrocyte, 6 h incubation; for ADAMTS-5 gene expression, percentage of inhibitory effect at the highest non toxic concentration: 6 h
Protocol: as §1, §2, §3, §4, §5, §6, §7, §8, §9

MMP3 = experiment: Gene expression in rat articular chondrocytes under IL-1β stimulation, MMP3; format: cell-based; set-up: key to MMP3 gene expression, no effect: ne: no effect
Protocol: as §1, §2, §3, §4, §5, §6, §7, §8, §9

MMP13 = experiment: Gene expression in rat articular chondrocytes under IL-1β stimulation, MMP13; format: cell-based; set-up: key to MMP13 gene expression, no effect: ne: no effect
Protocol: as §1, §2, §3, §4, §5, §6, §7, §8, §9

[1] = system: bovine nasal septum cartilage; experiment: Inhibition of cartilage degradation (GAG release) induced by IL-1α in a bovine in vitro model; format: cell-based; set-up: key to Bovine cartilage degradation induced by IL-1α, no effect: ne: no effect; conditions: for IC50: head says nM, cells print μM, 48 h stimulation, read-out: Inhibitory effect on bovine cartilage degradation induced by IL-1α, IC50
Protocol: Nasal septum cartilage was collected from an eight months-old male bovine in a local slaughterhouse.
Tissue was sprayed with ethanol 70% and immediately put in sterile PBS with Antibiotic-Antimycotic stabilized solution (PBS-AASS). It was cut in order to obtain small punches (diameter 2 mm, 1 mm-thick). washed with sterile PBS-AASS, the slices were transferred in a 96X well plate (one piece per well) in DMEM 10%+AASS. 48 h later the cartilage was stimulated in white DMEM+0.1% BSA+AASS with IL-1α […] in the absence or presence of the studied compounds.
The compounds concentration used in this analysis was chosen depending on the toxicity results obtained in rat primary chondrocytes at 48 h of incubation.
After 48 h stimulation, the culture medium was collected and stored at −80° C. The cartilage punches were digested with papain at 65° C. for 2 h in phosphate buffer (0.05M pH 6.5 with 2 mM N-acetil-L-cisteine and 2 mM EDTA).
The glycosaminoglycan (GAG) determination was done by a colorimetric assay with 1,9 dimethyl methylene blue (DMB).
Digested cartilage samples were diluted in PBS-BSA 1%. To 100 μl of diluted samples or standard we added 100 μl DMB 2X. After 5-20 min incubation the samples were read at 590 nm (Titertek Multiscan Plus).
The cartilage degradation induced by IL-1α was expressed as: GAG (medium)/total GAG (medium+cartilage)×100

[2] = system: rat primary articular chondrocytes; experiment: Toxicity analysis (MTT) in rat primary chondrocytes; conditions: for First toxic concentration at 24 h: rat primary chondrocytes
Protocol: Purified chondrocytes were resuspended in DMEM glutaMAX 10% and plated in a 96X well plate for toxicity analysis and in a 6X well plate for gene expression analysis.
For toxicity analysis cells were then treated with the different compounds for 24 and 48 h. At the end of the incubation time, the medium was removed and was substituted with a mixture 10:1 of DMEM glutaMAX 10%—MTT (2 mg/ml) for 1 h at 37° C. in the cell incubator. After this incubation, the precipitated salt was dissolved with 100 μl of DMSO and the plate was read at 540 nm. The toxicity analysis were performed to decide the maximal non toxic concentration of each compound used in the gene expression assay.

[3] = Bos taurus, read-out: Bovine cartilage degradation induced by IL-1α, % inhibitory effect at max concentration
[4] = Rattus norvegicus, Chondrocyte, 24 h incubation

Sequence of Fyn (P06241 whole entry): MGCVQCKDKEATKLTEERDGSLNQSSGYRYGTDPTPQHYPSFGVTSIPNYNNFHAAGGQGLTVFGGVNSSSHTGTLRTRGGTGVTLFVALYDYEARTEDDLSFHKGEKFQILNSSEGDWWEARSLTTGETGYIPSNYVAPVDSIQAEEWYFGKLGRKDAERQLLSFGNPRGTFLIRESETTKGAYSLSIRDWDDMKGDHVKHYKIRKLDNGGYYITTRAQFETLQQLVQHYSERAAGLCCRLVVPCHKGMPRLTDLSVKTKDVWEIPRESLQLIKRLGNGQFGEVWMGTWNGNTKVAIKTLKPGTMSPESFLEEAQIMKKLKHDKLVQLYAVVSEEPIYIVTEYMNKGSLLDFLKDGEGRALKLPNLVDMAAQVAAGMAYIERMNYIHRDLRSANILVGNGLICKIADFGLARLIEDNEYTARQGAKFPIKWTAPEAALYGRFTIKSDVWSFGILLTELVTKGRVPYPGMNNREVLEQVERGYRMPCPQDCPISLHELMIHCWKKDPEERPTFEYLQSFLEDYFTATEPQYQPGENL

Compound	IC50 (Fyn)	IC50 (VEGFR2)	IC50 (NF-kB)	IL-1β gene expression, percentage of inhibitory effect at the highest non toxic concentration (IL-1β; 10 μM)	IL-6 gene expression, percentage of inhibitory effect at the highest non toxic concentration (IL-6; 10 μM)	COX2 gene expression, percentage of inhibitory effect at the highest non toxic concentration (COX2; 10 μM, 24 h)	IC50 (ADAMTS-5)	MMP3 gene expression, percentage of inhibitory effect at the highest non toxic concentration (MMP3; 10 μM, 24 h)	MMP13 gene expression, percentage of inhibitory effect at the highest non toxic concentration (MMP13; 10 μM, 24 h)	IC50 ([1]; Bos taurus)	First toxic concentration at 48 h in rat primary chondrocytes [2]	First toxic concentration at 24 h [2]	IL-6 gene expression, percentage of inhibitory effect at the highest non toxic concentration (IL-6; 3 μM)	inhibition at 3 µM [1, 3]	IC50 (IL-1β)	other results
Cc1ccc(NC(=O)c2cccc(S(=O)(=O)C(C)C)c2)cc1CCc1cc(Nc2ncccc2C)[nH]n1 [Compound 35, 3-(isopropylsulfonyl)-N-(4-methyl-3-(2-(5-((3-methylpyridin-2-yl)amino)-1H-pyrazol-3-yl)ethyl)phenyl) benzamide]	88 nM	< 10 nM	1310 nM	10 μM 74%	10 μM 90%	10 μM 90%	3000 nM	10 μM 44%	10 μM 88%	1500 nM	>10 µM	>10 µM	–	–	–	–
Cc1cnc(Nc2cc(CCc3cc(NC(=O)c4cccc(C(F)(F)F)c4)ccc3F)n[nH]2)c(C)n1 [Compound 14, N-(3-(2-(5-((3,5-dimethylpyrazin-2-yl)amino)-1H-pyrazol-3-yl)ethyl)-4-fluorophenyl)-3-(trifluoromethyl)benzamide]	31 nM	10 nM	487 nM	–	–	–	–	–	–	–	10 µM	10 µM	3 μM 100%	97%	–	IL-1β gene expression, percentage of inhibitory effect at the highest non toxic concentration (IL-1β; 3 μM): 3 μM 99%; COX2 gene expression, percentage of inhibitory effect at the highest non toxic concentration (COX2; 3 μM, 24 h): 3 μM 100%; ADAMTS-5 gene expression, percentage of inhibitory effect at the highest non toxic concentration (ADAMTS-5; 3 μM): 3 μM 99%; MMP3 gene expression, percentage of inhibitory effect at the highest non toxic concentration (MMP3; 3 μM, 24 h): 3 μM 95%; MMP13 gene expression, percentage of inhibitory effect at the highest non toxic concentration (MMP13; 3 μM, 24 h): 3 μM 99%
Cc1nc(C(=O)Nc2ccc(C)c(CCc3cc(Nc4cnccn4)[nH]n3)c2)c(C(F)(F)F)o1 [Compound 6, 2-methyl-N-(4-methyl-3-(2-(5-(pyrazin-2-ylamino)-1H-pyrazol-3-yl)ethyl)phenyl)-5-(trifluoromethyl)oxazole-4-carboxamide]	112 nM	< 10 nM	2670 nM	–	–	–	–	–	–	–	3 µM	3 µM	–	–	–	IL-1β gene expression, percentage of inhibitory effect at the highest non toxic concentration (IL-1β; 1 μM): 1 μM 50%; IC50 (IL-6; Rattus norvegicus, Chondrocyte, 6 h incubation): 640 nM; COX2 gene expression, no effect (COX2; 24 h): ne; ADAMTS-5 gene expression, percentage of inhibitory effect at the highest non toxic concentration (ADAMTS-5; 1 μM): 1 μM 28%; MMP3 gene expression, no effect (MMP3; 24 h): ne; MMP13 gene expression, no effect (MMP13; 24 h): ne; Bovine cartilage degradation induced by IL-1α, no effect [1]: ne
Cc1ccc(NC(=O)c2ccnc(C(C)(C)C#N)c2)cc1CCc1cc(Nc2cnccn2)[nH]n1 [Compound 2, 2-(2-cyanopropan-2-yl)-N-(4-methyl-3-(2-(5-(pyrazin-2-ylamino)-1H-pyrazol-3-yl)ethyl)phenyl)isonicotinamide]	10 nM	< 10 nM	312 nM	10 μM 100%	10 μM 100%	10 μM 100%	–	10 μM 92%	10 μM 99%	800 nM	>10 µM	>10 µM	–	–	–	ADAMTS-5 gene expression, percentage of inhibitory effect at the highest non toxic concentration (ADAMTS-5; 10 μM): 10 μM 94%
Cc1nc(C#N)cc(Nc2cc(CCc3cc(NC(=O)c4cccc(S(=O)(=O)N(C)C)c4)ccc3C)n[nH]2)n1 [Compound 37, N-(3-(2-(5-((6-cyano-2-methylpyrimidin-4-yl)amino)-1H-pyrazol-3-yl)ethyl)-4-methylphenyl)-3-(N,N-dimethylsulfamoyl)benzamide]	24 nM	35 nM	2260 nM	–	10 μM 97%	10 μM 97%	4000 nM	10 μM 59%	10 μM 95%	–	>10 µM	>10 µM	–	–	1600 nM	inhibition at 10 µM ([1]; Bos taurus, 10 μM, read-out: Bovine cartilage degradation induced by IL-1α, % inhibitory effect at max concentration): 99%
Cc1ccc(NC(=O)c2cccc(C(F)(F)F)c2)cc1CCc1cc(NC(=O)c2ccc(F)cc2)[nH]n1 [Compound 19, N-(3-(2-(3-(4-fluorobenzamido)-1H-pyrazol-5-yl)ethyl)-4-methylphenyl)-3-(trifluoromethyl)benzamide]	69 nM	110 nM	883 nM	–	–	–	100 nM	–	–	–	10 µM	10 µM	3 μM 99%	83%	100 nM	IC50 (COX2; [4]): 400 nM; IC50 (MMP3; [4]): 600 nM; IC50 (MMP13; [4]): 500 nM
